Source: US12648569B2 (priority 2022, dated 2026)
Structures can show the parent of a compound that is named as a salt.

These compounds were tested on Ralstonia solanacearum MN R.s1 strain. Conditions: tomato seedlings, leaf cutting with scissors soaked in agent + R.s suspension, 7 d at 30° C.
Type: in vivo
For neophytomycin [Positive control group], the Mortality/% was 16.67%.

Same assay, conditions: tomato seedlings, leaf cutting, relative to negative control
Compound neophytomycin [Positive control group] has a Relative control effect/% of 81.01%.

Each compound was assayed on Ralstonia solanacearum R.s (MN R.s1). Conditions: tomato seedlings, roots soaked 10 min, R.s irrigated after 7 d.
Type: in vivo
With neophytomycin [Positive control group] the Control effect/% was 37.30%, the Disease index/% was 14.00% and the Morbidity/% was 16.70%.

These compounds were tested on M173. Conditions: not given.
`N#Cc1c(Cl)c(Cl)c(Cl)c(C#N)c1Cl` [Chlorothalonil] was tested, and the Compatibility was “Compatible”. `O=[N+]([O-])c1c(Cl)c(Cl)c(Cl)c(Cl)c1Cl` [Quintozene] was tested, and the Compatibility was “Compatible”. In the case of `CCCOC(=O)NCCCN(C)C` [Propamocarb hydrochloride], the Compatibility is reported as “Compatible”. For `CN1COCN(Cc2cnc(Cl)s2)/C1=N\[N+](=O)[O-]` [Thiamethoxam], the Compatibility was “Compatible”. For `O=[N+]([O-])c1cc(C(F)(F)F)c(Cl)c([N+](=O)[O-])c1Nc1ncc(C(F)(F)F)cc1Cl` [Fluazinam], the Compatibility was “Compatible”. `CN(C)C(=S)SSC(=S)N(C)C` [Thiram] was tested, and the Compatibility was “Compatible”. `N.N.O=S(=O)(O)O` [Ammonium sulfate] was tested, and the Compatibility was “Compatible”. With `COCC(=O)N(c1c(C)cccc1C)[C@H](C)C(=O)OC` [Metalaxyl-M] the Compatibility was “Compatible”. For `CN/C(=N/CC1CCOC1)N[N+](=O)[O-]` (stereo not shown) [Dinotefuran], the Compatibility was “Compatible”. `CC1(C)[C@H](C(=O)O[C@H](C#N)c2cccc(Oc3ccccc3)c2)[C@@H]1/C=C(\Cl)C(F)(F)F` [Gamma-cyhalothrin] was tested, and the Compatibility was “Compatible”. In the case of `NC(N)=O` [Urea], the Compatibility is reported as “Compatible”. With `CCO[PH](=O)O` [Fosetyl-aluminum] the Compatibility was “Compatible”. With `COC(=O)Nc1nc2ccccc2[nH]1` [Carbendazim] the Compatibility was “Compatible”. With `O=P([O-])(O)O.[K+]` the Compatibility was “Compatible”.
